Results from DBAASP.
Converted amounts (≈) assume the structure as drawn.

Experiments:
Test in all cases: ≥ marks a high value that may be exact or a test limit, other limits are often not marked, values filed in µg/mL are converted to µM
Aspergillus flavus = system: Aspergillus flavus
[1] = system: Candida parapsilosis IOC 4564
Candida albicans MDM8 = system: Candida albicans MDM8
[2] = system: Cryptococcus neoformans var. grubii H99
[3] = system: Aspergillus fumigatus NCPF 2109
[4] = system: Candida tropicalis IOC 4560
[5] = system: Saccharomyces cerevisiae ATCC 2601
Aspergillus niger A296 = system: Aspergillus niger A296
[6] = system: Staphylococcus aureus ATCC 29213
[7] = system: Salmonella enterica subsp. enterica serovar Typhimurium ATCC 14028
[8] = system: Streptococcus iniae KCTC 3657
[9] = system: Escherichia coli ATCC 25922
[10] = system: Pseudomonas aeruginosa ATCC 27853
[11] = system: Bacillus cereus ATCC 10876
[12] = system: Salmonella typhimurium CMCC 50013
[13] = system: Bacillus subtilis KCTC 3068

Row | SMILES | MIC (Aspergillus flavus) | MIC [1] | MIC (Candida albicans MDM8) | MIC [2] | MIC [3] | MIC [4] | MIC [5] | MIC (Aspergillus niger A296) | MIC [6] | MIC [7] | MIC [8] | MIC [9] | MIC [10] | MIC [11] | MIC [12] | MIC [13]
1 | CC(C)C[C@H](NC(=O)[C@H](CC(C)C)NC(=O)[C@H](CCCCN)NC(=O)[C@@H](N)Cc1ccccc1)C(=O)N[C@@H](CO)C(=O)N[C@@H](Cc1cnc[nH]1)C(=O)N[C@@H](CO)C(=O)N[C@@H](CC(C)C)C(=O)N[C@@H](CC(C)C)C(=O)N[C@H](C(=O)N[C@H](C(=O)N[C@@H](CC(C)C)C(=O)N[C@@H](C)C(=O)N[C@@H](CO)C(=O)N[C@@H](Cc1cnc[nH]1)C(=O)N[C@@H](CC(C)C)C(=O)N1CCC[C@H]1C(=O)O)[C@@H](C)O)C(C)C [FKLLSHSLLVTLASHLP] | ≥ 50 µM | 12.5 µM (≈ 23.5 µg/mL) | 2.1 µM (≈ 3.94 µg/mL) | 1.6 µM (≈ 3 µg/mL) | 6.3 µM (≈ 11.8 µg/mL) | 2.1 µM (≈ 3.94 µg/mL) | 3.1 µM (≈ 5.82 µg/mL) | 12.5 µM (≈ 23.5 µg/mL) |  |  |  |  |  |  |  | 
2 | CC[C@H](C)[C@H](NC(=O)[C@H](Cc1ccccc1)NC(=O)[C@@H](NC(=O)[C@H](CCCCN)NC(=O)[C@@H](NC(=O)[C@H](CCCCN)NC(=O)[C@H](CCCCN)NC(=O)[C@H](Cc1ccccc1)NC(=O)[C@@H](NC(=O)[C@H](CCCCN)NC(=O)[C@H](CCCN=C(N)N)NC(=O)[C@H](Cc1ccccc1)NC(=O)CNC(=O)[C@H](CCCCN)NC(=O)[C@H](CCCCN)NC(=O)[C@@H](NC(=O)[C@H](CCCCN)NC(=O)[C@H](CCCN=C(N)N)NC(=O)[C@H](Cc1ccccc1)NC(=O)[C@H](Cc1ccccc1)NC(=O)[C@H](CCCCN)NC(=O)[C@H](CCCCN)NC(=O)[C@H](Cc1ccccc1)NC(=O)[C@H](CCCN=C(N)N)NC(=O)[C@H](CCCCN)NC(=O)[C@@H](NC(=O)[C@@H](N)CCCN=C(N)N)C(C)C)[C@@H](C)CC)[C@@H](C)CC)[C@@H](C)O)[C@@H](C)CC)C(=O)NCC(=O)O [RVKRFKKFFRKIKKGFRKIFKKTKIFIG] |  |  |  |  |  |  |  |  | > 35.8 µM | 0.42 µM (≈ 1.5 µg/mL) | 8.95 µM (≈ 32 µg/mL) | 0.559 µM (≈ 2 µg/mL) | 0.839 µM (≈ 3 µg/mL) | 12.9 µM (≈ 46 µg/mL) |  | 
3 | CC[C@H](C)[C@H](NC(=O)[C@@H](N)CO)C(=O)N[C@@H](CO)C(=O)N[C@@H](CC(C)C)C(=O)N[C@@H](CC(C)C)C(=O)O [SISLL] |  |  |  |  |  |  |  |  | 158 µM (≈ 83.9 µg/mL) |  |  | 172 µM (≈ 91.4 µg/mL) |  |  | ≥ 186 µM | ≥ 133 µM
